Data published in patent US8410045B2, “Camptothecin-peptide conjugates and pharmaceutical compositions containing the same” (Drais Pharmaceuticals, Inc., priority 2006, dated 2013).
Like-named read-outs stand apart in the source and are kept apart here. Marks after values point to notes of the source that are not given here.

What was measured:
[1] = Pharmacokinetic study in the dog (blood, HPLC fluorescence); format: in vivo
Procedure: Peripheral blood samples were taken at different times following infusion for pharmacokinetic analysis.
Blood samples (2.5 mL) were collected in 5 mL in trisodium citrate tubes (Sarstedt S-Monovette® 9NC) containing 2.5 mL of 5% TFA (v/v) and vortexed for 5 seconds before storage at −80° C. (for less than two weeks).
Samples were then analyzed after a TFA and acetonitrile extraction by an HPLC fluorescence method, described below. […] Whole blood samples were acidified with TFA to protect the ester link of the conjugate against hydrolysis and allow protein precipitation to improve conjugate and SN38 recovery.
Five hundred microliters of each sample were then placed in 1.5 mL micro-centrifuge tubes to and centrifuged at 16000×g 3 min at +4° C. […] Methanol (100 μL) was then immediately added and the mixture stirred vigorously (vortex) for 5 seconds. Samples were then centrifuged at 16000×g, 3 min at room temperature.
One hundred and fifty microliters of the supernatant was recovered for HPLC analysis.
DPV1047-BCH-SN38 and its metabolite SN38 were separated by high-performance liquid chromatography (HPLC Agilent 1100 with a fluorescence detector) using the following method: […]

NCI-H460 lung carcinoma = assay: Antitumor efficacy in NCI-H460 lung carcinoma model in nude mice; conditions: Table 7, i.v. Q2D3 × 3 W
[2] = Stability of conjugates in citrated plasma at 37° C. (half life time, HPLC fluorescence); format: in vitro ADME; conditions: DPV1047-linker-SN38, 2.55 μM
Procedure: The stability of the conjugates was tested in citrated plasma (10% (v/v) sodium citrate buffer, 0.106M) from different species (see Table 1 below). The conjugates at 2.55 μM were incubated at 37° C. in plasma. Samples were analysed using the HPLC fluorescence method described below (see chromatographic equipment and conditions) following TFA/acetonitrile extraction and the amount of free camptothecin, analogs or derivatives thereof (e.g. SN38) released by the conjugates was measured.
Chromatographic equipment and conditions: 150 μL of each sample were placed in 1.5 mL micro-centrifuge tubes. 450 μL of 5% (v/v) TFA in H2O was added to each tube and the mixture was vortexed for 5 seconds. Samples were then centrifuged at 16000 g, 3 minutes at +4° C. 100 μL of supernatant were placed in 1.5 mL micro-centrifuge tubes. Methanol (100 μL) was then immediately added and vortexed for 5 seconds. Samples were then centrifuged at 16000 g, 3 minutes at room temperature. 150 μL of supernatant were recovered for HPLC analysis. Conjugates, metabolites and camptothecin derivative (i.e. SN38) were separated by high-performance liquid chromatography (HPLC; Agilent 1100 series equipped with a fluorescence detector) using a 4.6×100 mm ([…] particle size) Luna C18(2) column (Phenomenex ref. 00D-4251-E0, Le Pecq, France). The aqueous component of the mobile phase (A) was 0.1% (v/v) TFA in water. The organic modifier (B) was acetonitrile containing 0.1% (v/v) TFA. For the conjugate and its metabolites an elution gradient increasing linearly the proportion of B from 15 to 37% in 2 min, from 37 to 47% in 6 min, followed by 2 min at 90% was applied with a constant flow rate of 1.2 mL/min. The proportion of B was then returned to the initial condition for 3.0 min.
The half life time of conjugate corresponds to the time necessary to have 50% by mole of free camptothecin, analogs or derivatives thereof released by the conjugates of the invention. In human plasma, the half life time of conjugate DPV1047-linker #1-SN38 (less than 5 mins) was shorter than that of conjugate DPV1047-linker #2-SN38 (6-7 mins), which, in turn, was shorter than that of conjugate DPV1047-linker #3-SN38 (12 mins).

[3] = system: HCT 116 human colorectal carcinoma tumor
[4] = system: HT-29 colorectal carcinoma; assay: Antitumor efficacy in HT-29 colorectal carcinoma model in nude mice; format: in vivo; conditions: Table 7
[5] = system: HCT 116 human epithelial colon carcinoma cells; assay: cells; format: cell-based
Procedure: Cytotoxic evaluation was performed by seeded cells for 24 h prior to the addition of the therapeutic compound. Cells were incubated for 48 h (37° C.) with different dilutions of the therapeutic compound. Cell viability was then assessed using the WST-1 assay (Roche). The results are expressed as mean cytotoxic concentrations (IC50 value or molar concentration that inhibits 50% of cell viability) that were estimated from sigmoid regression, using Graph Pad Prism 3.02 software.
HCT 116 (ATCC #: CCL-247): human epithelial colon carcinoma cells. Cells were cultured in Mc Coy's 5a medium+1.5 mM L-glutamine and 10% fetal bovine serum. Cells were plated at a density of 8000 cells/well in 96-well plates.

[6] = Stability of conjugates in citrated plasma at 37° C. (half life time, HPLC fluorescence); format: in vitro ADME, human; conditions: for half-life: human, plasma
How it was run: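 Conjugates at 2.55 μM incubated at 37° C in citrated plasma of several species, including human and dog. After TFA/acid extraction, released free camptothecin derivative (e.g. SN38) measured by reversed-phase C18 HPLC with fluorescence detection; half-life taken as time to 50 mol% release.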

[7] = Table 3, 30 (cumulative 90) μmol/kg, i.v. bolus, Q4Dx3
[8] = Table 7, i.v. Q2D3 × 3 W, 25 μmol/kg

CCc1c2c(nc3ccc(OC(=O)[C@H]4CC[C@H](CNC(=O)C5CCC(CN6C(=O)CC(SC[C@H](N)C(=O)N[C@H](C(=O)N[C@@H](CCCCN)C(=O)N[C@@H](CCCNC(=N)N)C(=O)NCC(=O)N[C@@H](CC(C)C)C(=O)N[C@@H](CCCCN)C(=O)N[C@@H](CC(C)C)C(=O)N[C@@H](CCCNC(=N)N)C(=O)N[C@@H](Cc7c[nH]cn7)C(=O)N[C@H](C(=O)N[C@@H](CCCNC(=N)N)C(=O)N7CCC[C@H]7C(=O)N[C@@H](CCCNC(=N)N)C(=O)N[C@H](C(=O)N[C@H](C(=O)N[C@@H](CCCNC(=N)N)C(=O)N[C@@H](CCSC)C(=O)N[C@@H](CC(=O)O)C(=O)N[C@H](C(=O)O)C(C)C)[C@@H](C)O)C(C)C)C(C)C)C(C)C)C6=O)CC5)CC4)cc13)-c1cc3c(c(=O)n1C2)COC(=O)[C@]3(O)CC (single isomer, unassigned) [DPV1047-BCH-SN38]
circulating half life time in the blood compared to DPV1047-MIC-SN38 ([1]; dog blood (FIG. 2)): longer
AUC of SN38 compared to DPV1047-MIC-SN38 ([1]; dog blood, equimolar dose (FIG. 1)): significantly greater
SN38 Cmax and AUC versus dose of the conjugate ([1]; dog blood, non-toxic doses (DPV1047-BCH-SN38 ≦20 mg/kg, DPV1047-MIC-SN38 ≦50 mg/kg)): increased linearly with the dose
Optimal T/C % (NCI-H460 lung carcinoma; 12.5 μmol/kg): 47.5%
TGI % (NCI-H460 lung carcinoma; 12.5 μmol/kg): 52.5%
Optimal T/C % (NCI-H460 lung carcinoma; 25 μmol/kg): 22.9%
TGI % (NCI-H460 lung carcinoma; 25 μmol/kg): 77.1%
half-life ([2]; time to 50% by mole free SN38 released, read-out: Half life time, Mouse plasma): < 0.05 h
half-life ([2]; monkey): 4.83 h
half-life ([2]; rat): 0.233 h
clinical signs of toxicity such as body weight loss, diarrhea or alopecia ([3]; HCT 116 tumor-bearing nude mice, conjugates administered at their MADs): No clinical signs of toxicity
Minimal T/C (%) [3, 7]: 10%
TGI % [3, 7]: 80%
TGI (100-T/C %) ([3]; Table 5, Q1D5, 18 (cumulative 90) μmol/kg): 93*** %
Minimal T/C (%) ([3]; Table 5, Q1D5, 18 (cumulative 90) μmol/kg, i.v. bolus): 7%
Minimal T/C (%) ([3]; Table 5, Q2D3x3W, DPV1047-BCH-SN38 25 (225), irinotecan 48 (432) μmol/kg): 3%
TGI (100-T/C %) ([3]; Table 5, Q2D3x3W, DPV1047-BCH-SN38 25, irinotecan 48 μmol/kg): 97*** %
Optimal T/C % [3, 8]: 3.4%
TGI % [3, 8]: 96.6%
Minimal T/C (%) ([3]; mouse, in vivo): 10%
TGI (100-T/C %) ([3]; mouse, in vivo): 90*** %
Optimal T/C % ([4]; i.v. Q4D × 3, 12.5 μmol/kg): 66.8%
TGI % ([4]; i.v. Q4D × 3, 12.5 μmol/kg): 33.2%
Optimal T/C % ([4]; i.v. Q4D × 3, 25 μmol/kg): 39.2%
TGI % ([4]; i.v. Q4D × 3, 25 μmol/kg): 60.8%
IC50 ([5]; 24 h): 24 nM
IC50 ([5]; 48 h): 29 nM
half life time, times longer than the DPV1047-linker #2-SN38 conjugate ([6]; human plasma): 60 times
half-life ([6]; DPV1047-linker-SN38, 2.55 μM, citrated plasma, read-out: Half life time, Human plasma): 6.67 h
half-life ([6]; Table 10, SN38 conjugates, read-out: Human Plasma Half life time): 6 h
half-life ([6]; Table 12, CPP-linker #5-SN38 conjugates incl. D conformation, read-out: Human Plasma Half life time): 6.37 h
